In one assay the test system is peroxydation lipidique. Description: Lipid peroxidation measurement in mouse hippocampus (colorimetric, CHP equivalents). The format is in vivo, souris. Conditions: Etifoxine 12,5-50 mg/kg per day IP, Aβ25-35 ICV, day 10. The source says:
Le 1^er jour : une version « mélangée » (scrambled) du peptide amyloïde β25-35 (Sc.Aβ, témoin négatif) ou le peptide amyloïde β25-35 (Aβ25-35) est injecté par voie intra-cérébroventriculaire (ICV) (le peptide Aβ25-35 provoque l'intoxication cellulaire). Entre le 1^er jour et le 10^ème jour, les traitements sont administrés une fois par jour par voie intrapéritonéale (IP).
A la fin de la session de rétention d'évitement passif, le 10^ème jour, les animaux sont sacrifiés par décapitation. L'hippocampe et le cortex frontal sont disséqués et congelés dans l'azote liquide. L'hippocampe est utilisé pour mesurer le taux de peroxydation lipidique à l'aide d'une méthode colorimétrique et pour évaluer les taux de 4 marqueurs biochimiques par des tests ELISA. Le cortex est conservé à -80°C en attente d'analyses supplémentaires. Les plasmas sont également conservés en attente d'analyses supplémentaires. Les échantillons biologiques sont jetés après 3 mois.
Les souris de chaque groupe sont sacrifiées par décapitation et les deux hippocampes sont prélevés, pesés et conservés dans de l'azote liquide jusqu'à l'analyse. […] Après avoir lu l'absorbance à 580 nm (A5801), 10 µl d'hyperoxyde de cumène (CHP) (1 mM) sont ajoutés à l'échantillon et il est incubé pendant 30 minutes à température ambiante pour déterminer le degré d'oxydation maximal. L'absorbance est mesurée à 580 nm (A5802). […]

A further assay deals with neurones corticaux. Description: Survival of cortical neurons after Aβ1-42 intoxication (MAP-2 immunostaining). The settings on record: 1 h pre-incubation, Aβ1-42 10 µM, 24 h. The format is cell-based, rats. On the procedure: Des neurones corticaux de rats sont mis en culture comme dans la méthode décrite par Singer (1999) J. Neurosci. 19:2455-2463. Des rats femelles enceintes de 15 jours sont tuées par dislocation des cervicales (Rats Wistar, Janvier) et le fœtus est retiré de l'utérus. Les cortex sont prélevés et placés dans un milieu glacé de Leibovitz (L15, Panbiotech, Réf : P04-27055, lot : 9310614) contenant 2% de pénicilline (10 000 U/ml) et de streptomycine (10 mg/ml) (PS, Panbiotec, Réf : P06-07100, lot : 48101114) et 1% de sérum-albumine bovine (BSA, Panbiotech, Réf : P06-1391100, lot : H140603). Les cortex sont dissociés par trypsination (0,05% Panbiotech, Réf : P10-023100, lot : 5890314) pendant 20 minutes à 37°C. La réaction est stoppée par addition d'un milieu Eagle modifié de Dulbecco (DMEM, Panbiotech, réf P04-03600, lot : 9670913) contenant de la DNase I grade Il (0,1 mg/ml Panbiotech, Réf : P60-37780100, lot : H140508) et 10 % de sérum de veau fœtal (FCS, Invitrogen, Réf : 10270 à 098, lot : 41Q4120K). Les cellules sont dissociées mécaniquement par 3 passages à travers une pipette de 10 ml. Les cellules sont ensuite centrifugées à 515 g pendant 10 minutes à 4°C. […]

The source of these data is patent EP3454861B1, “BENZOXAZINE OR QUINAZOLINE DERIVATIVES FOR USE IN THE TREATMENT OF ALZHEIMER'S DISEASE” (Biocodex, priority 2016, dated 2017).

With `CCNC1=Nc2ccc(Cl)cc2C(C)(c2ccccc2)O1` (stereo not drawn) [Etifoxine, chlorhydratede 6-chloro-2-éthylamino-4-méthyl-4-phényl-4H-[3,1]benzoxazine], the “peroxydation lipidique dans l'hippocampe (stress oxydatif induit par Aβ25-35)” value with peroxydation lipidique is on record as “diminuer de manière dose-sensible le stress oxydatif”. The survie des neurones entry in the assay on neurones corticaux (étifoxine 3 µM, p <0,05) was “restaure de manière significative la survie des neurones”; with neurones corticaux (étifoxine 10 µM, p <0,01), “restaure de manière significative la survie des neurones”.
